According to US20180092866A1, “SUBSTITUTED N-([1,1'-BIPHENYL]-3-YL)-[1,1'-BIPHENYL]-3-CARBOXAMIDE ANALOGS AS INHIBITORS FOR BETA-CATENIN/B-CELL LYMPHOMA 9 INTERACTIONS” (University of Utah Research Foundation, priority 2015, published 2018):
Substitutions are numbered along the chain they refer to.

Legend:
[1] = molecular target: T1, β-catenin L159S mutant (residues 138-686) (Homo sapiens, UniProt P35222, L159S); assay: Isothermal titration calorimetry, β-catenin L159S; type: binding; settings: ITC
T1 construct: His6 (C); made in house; host or cells: E. coli BL21 DE3
T1 sequence (P35222 138-686 L159S): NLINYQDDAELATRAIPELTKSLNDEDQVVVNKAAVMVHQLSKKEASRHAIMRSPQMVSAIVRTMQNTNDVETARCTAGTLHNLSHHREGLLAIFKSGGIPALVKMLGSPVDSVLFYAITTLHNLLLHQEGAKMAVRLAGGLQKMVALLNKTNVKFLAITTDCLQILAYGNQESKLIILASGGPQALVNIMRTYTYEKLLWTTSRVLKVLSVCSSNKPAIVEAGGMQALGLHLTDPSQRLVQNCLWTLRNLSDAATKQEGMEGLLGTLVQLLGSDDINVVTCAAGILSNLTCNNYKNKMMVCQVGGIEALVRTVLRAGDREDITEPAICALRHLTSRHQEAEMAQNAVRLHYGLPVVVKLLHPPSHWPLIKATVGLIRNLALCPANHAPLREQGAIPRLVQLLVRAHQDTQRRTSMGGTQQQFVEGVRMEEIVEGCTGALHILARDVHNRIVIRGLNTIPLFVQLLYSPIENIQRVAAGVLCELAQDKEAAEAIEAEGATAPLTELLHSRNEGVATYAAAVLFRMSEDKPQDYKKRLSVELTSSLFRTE
Description: (§1) Mutants β-catenin D145A, E155A, L156S, L159S, D145A/E155A, L156S/L159S, and L156S/L178S were generated using the overlapping PCR method. Template for the mutagenesis reactions was wide type full-length β-catenin in pET-28b. KOD hot start DNA polymerase (Novagen) was used through this experiment. Mutants were confirmed by direct sequencing (Core facility, University of Utah). Following the confirmation of the sequence, mutant β-catenin were cloned into a pET-28b vector and transformed into E. coli BL21 DE3.
(§2) ITC measurements were performed at 28° C. using a VP-ITC (Microcal, GE Healthcare Life Sciences). […] The homogeneity of the purified proteins were examined by native gel electrophoresis. Each titration experiment was initiated by a 2 μL injection, and followed by 30-35 times injections with an 8 μL volume each. Blank titrations, which were carried out by injecting the compound into the buffer, were subtracted from each data set. The association constant KA, enthalpy change (ΔH), and stoichiometry N were obtained from fitting the data using the Origin software package. The dissociation constant Kd, the free energy change ΔG, and the entropy change ΔS were obtained from the basic thermodynamic equations, Kd=KA^−1, ΔG=−RTlnKA, and ΔG=ΔH−TΔS.

[2] = molecular target: T2, β-catenin L156S/L178S mutant (residues 138-686) (Homo sapiens, UniProt P35222, L156S/L178S); assay: Isothermal titration calorimetry, β-catenin L156S/L178S; type: binding; settings: ITC
T2 construct: His6 (C); made in house; host or cells: E. coli BL21 DE3
T2 sequence (P35222 138-686 L156S/L178S): T1 sequence (P35222 138-686 L159S) with L19S, S22L, L41S
Description: as §1, §2

[3] = molecular target: T3, wild-type human β-catenin (residues 138-686) (Homo sapiens, UniProt P35222); assay: Isothermal titration calorimetry, wild-type β-catenin; type: binding; settings: ITC, 28° C.
T3 construct: His6 (C); made in house; host or cells: E. coli BL21 DE3
T3 sequence (P35222 138-686): T1 sequence (P35222 138-686 L159S) with S22L
Method: as §2

[4] = tested on: AXIN2, LGR5, LEF1, and cyclin D1 transcription in MDA-MB-231 cells; assay: Quantitative real-time PCR, MDA-MB-231 cells; type: cell-based, human; settings: 2 and 4 μM
Method: SW480 and MDA-MB-231 cells at 1×10^6/mL were treated with different concentrations of 21 for 24 h. Total RNAs were extracted with TRIzol ([…], Life Technologies), and the cDNA was synthesized with the superscript III first-strand kit (18080-051, Invitrogen). Quantitative PCR (qPCR) was performed using the iQ™ SYBR green supermix kit (170-8880, BIO-RAD) on an iQ^5 multicolor real-time PCR reaction system (BIO-RAD). The threshold cycle (CT) values were normalized to that of internal reference GAPDH. The primer pairs for human GAPDH were forward: 5′-[…]-3′, and reverse: 5′-[…]-3′, for human AXIN2 forward: 5′-[…]-3′ and reverse: 5′-[…]-3′, for human LGR5 forward: 5′-[…]-3′ and reverse: 5′-[…]-3′, for human LEF1 forward: 5′-[…]-3′ and reverse: 5′-[…] […]-3′, and for human cyclin D1 forward: 5′-[…]-3′, and revers: 5′-[…]-3′. Experiments were performed in triplicate.

Structure (SMILES): O=C(Nc1ccc(O[C@H]2CCNC2)c(-c2ccc(F)cc2)c1)c1ccc(O[C@H]2CCNC2)c(-c2ccc(F)c(F)c2)c1 [Compound 21, (S)-3-((3′,4′-difluoro-5-((4′-fluoro-6-((S)-pyrrolidin-1-ium-3-yloxy)-[1,1′-biphenyl]-3-yl)carbamoyl)-[1,1′-biphenyl]-2-yl)oxy) pyrrolidin-1-ium chloride]
- Kd [1]: 924 ± 33 nM
- Kd [2]: 1590 ± 45 nM
- Kd [3]: 333 ± 6 nM
- inhibition of mRNA expression [4]: More than 50%
